Entries after “also recorded” stand apart in the source; their conditions may differ.
Key:
[1] = test system: fully amygdala kindled rats; settings: rat, in vivo
fully-kindled rats = settings: rat, in vivo
Non-kindled rats = settings: rat, in vivo
[2] = test system: audiogenic seizure susceptible mice; settings: mouse, in vivo; cited from earlier work
[3] = test system: amygdala and surrounding brain structures; settings: rat, in vivo

In the case of NC(=O)N1c2ccccc2C=Cc2ccccc21 [carbamazepine], the “increase in mean AD threshold and decreases in mean seizure stage and mean behavioral seizure duration vs vehicle (p value)” value [1] is reported as < 0.05, the “kindling measures vs vehicle at later time points” value [1] is reported as “no differences” and the “time course of activity after CED infusion (in words)” value [1] is reported as “apparent at 20 min but not at 24 h; also recorded: active at 20 min but not at 24 h”. The “adverse neurological or behavioral effects” value (fully-kindled rats) was “not associated with any observable adverse neurological or behavioral effects”.

For ω-conotoxin GVIA [ω-CTX-G], the “time of maximum increase in AD threshold / maximum protective effect after CED infusion” value [1] was 48 h, the “behavioral effects of the toxin infusion (in words)” value (Non-kindled rats) was “no or only mild behavioral effects” and the body weight gain (Non-kindled rats) was 3.0±1.8%. The body weight loss (Non-kindled rats) was 10.3±0.9%, the “cumulative dose corresponding to the threshold for locomotor arrest” value (Non-kindled rats) was 0.013 ± 0.001 nmol and the “cumulative dose corresponding to the threshold for whole body tremors” value (Non-kindled rats) was 0.027 ± 0.002 nmol. The “onset of locomotor activity arrest following the infusion” value (Non-kindled rats) was 5.0 ± 0.4 min, the “onset of rhythmic whole body tremors following the infusion” value (Non-kindled rats) was 10.8 ± 0.9 min and the persistence of tremors (Non-kindled rats) was 24 h. The “rats exhibiting locomotor activity arrest followed by whole body tremors” value (Non-kindled rats) was “All six”, the protection against seizures [2] was “protected against seizures” and the “tissue damage after repeated CED infusions (cresyl violet and silver staining)” value [3] was “minimal damage”. For the same compound, the body weight increase (fully-kindled rats) was 0.1±2.1%, the resolution of tremor (fully-kindled rats) was “resolved by the third day after the infusion” and the “tremor after infusions of lower doses” value (fully-kindled rats) was “No tremor was observed”.
